According to the NIST ThermoML archive (doi:10.1016/j.tca.2014.08.035):
Numbers after ± are expanded uncertainties. Each block holds one compound with its values, some of them ahead of it.

How the values were obtained:
[1] = Molar enthalpy of transition or fusion; settings: DSC
[2] = DTA
[3] = Solid-liquid equilibrium temperature; settings: 10000 kPa; Crystal 2; DTA
[4] = molar enthalpy of transition or fusion; settings: 640.05 K; Crystal 2; DSC

- Molar enthalpy of transition or fusion ([1]; Crystal): 3.51 ± 0.143 kcal/mol
- Normal melting temperature ([2]; Crystal): 144.20 ± 0.5 °C
SMILES: O=S(=O)([O-])O.[NH4+] [ammonium acid sulfate]

- Molar enthalpy of transition or fusion ([1]; Crystal): 3.99 ± 0.143 kcal/mol
- Normal melting temperature ([2]; Crystal): 132.90 ± 0.4 °C
SMILES: N.NS(=O)(=O)O [ammonium sulfamate]

- Molar enthalpy of transition or fusion ([1]; Crystal 3): 0.681 ± 0.43 kcal/mol
- Solid-liquid equilibrium temperature [3]: 640.05 ± 0.8 K
- molar enthalpy of transition or fusion [4]: 0.669 ± 0.191 kcal/mol
SMILES: N.N.O=S(=O)(O)O [ammonium sulfate]

- Molar enthalpy of transition or fusion ([1]; Crystal 1): 7.65 ± 1.91 kcal/mol
- Molar enthalpy of transition or fusion ([1]; Crystal 2): 0.645 ± 0.0717 kcal/mol
- Normal melting temperature ([2]; Crystal 1): 229.00 ± 4 °C
- Triple point temperature ([2]; Crystal 2): 412.85 ± 0.5 K
SMILES: O=S(=O)([O-])O.O=S(=O)([O-])[O-].[NH4+].[NH4+].[NH4+] [triammonium hydrogen disulfate]
